As a reminder, the melting point is the temperature of the solid-liquid transition.

Some results are limits rather than exact numbers.

Take `N#Cc1cnn(-c2c(Cl)cc(Cl)cc2Cl)c1Cl`: the melting point lay in the range of 78 to 79 °C.

Consider `O=C1c2ccccc2C(=O)N1Cn1nnn(-c2ccccc2)c1=S`, for which the melting point was in the range of 130 to 134 °C. In the case of `O=C(Nc1cccc(-c2cnc(-c3cccc(NC(=O)c4ccccn4)c3)[nH]2)c1)c1ccccn1` it was 208 to 210 °C; in that of `Cc1nc(-c2ccccc2)nc(-c2cccc([N+](=O)[O-])c2)c1CO`, 177 to 178 °C.

Take `Nc1ccc(C(=O)N2CCCCc3sc(Cl)cc32)cc1`: the melting point lay within 146 to 149 °C. For `CC(=O)NC[C@H]1CN(c2cc(F)c(N3CCSCC3)c(F)c2)C(=O)O1` the value was 187 to 188 °C. As to `C#CCOc1cc(N2C(=O)C3CCCCN3C2C(=O)OCC)c(F)cc1Cl` (stereo not drawn), the melting point is 72 to 75 °C. For `CCOC(=O)c1cc(N=c2sc(=S)n3n2CCCC3)c(F)cc1F`, the melting point lay within 91 to 92 °C.

Take `Cn1cnc2ncnn2c1=S`: the melting point was 238 to 240 °C. Turning to `Nc1ccc(Cl)c(Cl)c1Br`, the melting point fell in the range of 78 to 80 °C. In the case of `COc1ccccc1[C@H](c1cccc2ccccc12)[C@@](C)(C#N)C(=O)N1CCC(C2CCCC(C(F)(F)F)C2)CC1` (stereo partly drawn) it was 160 to 165 °C; in that of `Cc1ccc(C(=O)Nc2nc(-c3ccccc3)c(-c3nc4ccccc4c(=O)n3-c3ccccc3)s2)cc1`, greater than 275 °C; in that of `Cc1cnc(C(=O)c2[nH]c3cc(Cl)ccc3c2CC(=O)O)cc1C`, 226 to 228 °C. As to `O=C(C=C1CCCN1)c1ccc(Cl)c(Cl)c1`, the melting point is 208 to 209 °C. For `CC(=O)c1c2cnnc-2sn1C` the value was 130 to 131 °C; for `CC(=O)NC[C@H]1CN(c2ccc(-n3cc(-c4ccc(Cl)cc4)cn3)c(F)c2)C(=O)O1`, 238 °C; for `CCN1CCCC(NC2c3ccccc3Oc3ccccc32)C1` (stereo not drawn), 47.5 to 48.5 °C. `CC(C)(C)c1cnc(CSc2cnc(NC(=O)Cc3ccc(OCCCC(=O)Nc4ccccn4)cc3)s2)o1` yielded a melting point of 126 to 129 °C. On to `NCCc1c[nH]c2ccc(NC(=O)Nc3ccccc3)cc12`, for which the melting point was 192 to 194 °C.

`COc1cccc(CNC(=O)c2cc3c(=O)n(CCC(=O)c4ccccc4)c(=O)n(C)c3s2)c1` registered a melting point of 188 to 191 °C.

In the case of `CCOC(=O)c1cn(-c2nccs2)cn1`, the melting point was 142 to 143 °C. `O=C(O)c1cc2c([N+](=O)[O-])c(O)c(O)cc2oc1=O` registered a melting point greater than 300 °C. Take `COc1ccc(C2CNC(=O)C2)cc1OC(C)C(O)CN1CCN(c2ccccc2)CC1` (stereo not drawn): the melting point is 116 to 118 °C.

Take `N#Cc1ccc2[nH]cc(C3CCC4(CC3)OCCO4)c2c1`: the melting point is 153 to 155 °C. `CCOC(OCC)c1cc(Nc2ccc(OC)cc2)c(F)c(-c2ccc(Cl)cc2)n1`: the melting point is 110 to 111 °C.

In turn, `Cc1c(-c2cc(Br)c(O)c(Br)c2)oc2ccc(OP(=O)(O)O)cc2c1=O` returned a melting point of 258 to 260 °C. In the case of `CCC(=O)Nc1cc(OC)cc2c1CC(C)O2` (stereo not drawn) it was 101 °C; in that of `O=C(O)C(Cc1ccccc1)C(=O)NCc1cccc2ccccc12` (stereo not drawn), 142 to 145 °C. In the case of `N#CC1=CSCC1Nc1c(Cl)cccc1Cl` (stereo not drawn) it was 170 to 173 °C; in that of `CCC12CCC(=O)C=C1c1c(cc(OCC(=O)OCC3COC(C)(C)O3)c(Cl)c1Cl)C2` (stereo not drawn), 143 to 145 °C.

Turning to `Cn1c(C(F)(F)F)cc(=O)n(-c2ccc3snc(C(=O)NS(N)(=O)=O)c3c2)c1=O`, the melting point worked out at 221 °C. In turn, `Cc1ccc(S(=O)(=O)Nc2ccc([C@@H](C)C(N)=O)cc2)cc1` gave a melting point of 138 to 140 °C. In the case of `C=Cc1cc(CNC(=O)OC(C)(C)C)cc(Cl)c1NS(C)(=O)=O` it was 133 to 135 °C; in that of `CCCCOCCOc1ccc(-c2ccc3c(c2)C=C(C(=O)Nc2ccc(S(=O)Cc4ncnn4C)cc2)CCN3CC(C)C)cc1` (stereo not drawn), 135 to 138 °C. As to `CC(=O)NC(C)c1cc(S(N)(=O)=O)sc1S(C)(=O)=O` (stereo not drawn), the melting point was 114 to 117 °C. Consider `CC(C)CCOc1ccc(Cl)c2c(=O)c3ccccc3sc12`, for which the melting point was in the range of 96 to 97 °C. The molecule `O=C(O)C(=O)Nc1cc(NC(=O)C(=O)O)cc(C(=O)O)c1` showed a melting point greater than 320 °C.

Turning to `O=C(O)CCCCSc1nc(-c2ccccc2)c(-c2ccccc2)[nH]1`, the melting point was 190 to 195 °C. The molecule `Cc1cc(C(=O)N2Cc3ccc(C(=O)N(CCCN(C)C)CCCN(C)C)n3Cc3ccccc32)ccc1-c1ccccc1C(F)(F)F` gave a melting point of 55 to 64 °C. As for `CCOC(=O)N[C@H]1CC=C[C@H]2CNC(=O)[C@H]12` (racemic), the melting point was in the range of 160 to 164 °C. In the case of `CC(C)(C)NSc1cnccn1` it was 44 to 52 °C; in that of `N#Cc1c(-c2ccc(OCc3ccccc3)cc2)n(Cc2ccc(OCCCl)cc2)c2cccc(OCc3ccccc3)c12`, 160 to 162 °C. For `CC1(C)CN(c2ncc(C(=O)O)c(N)n2)C(=O)N1` the value was 290 to 291 °C; for `NC(=O)c1cc(Cl)cc(-c2cccc3cc(Cc4cccc(C(F)(F)F)c4)sc23)c1`, 139 to 140 °C. As to `Cc1cccc(C2COc3c(ccc(O)c3O)C2)c1` (stereo not drawn), the melting point lay within 95 to 96 °C.

In turn, `Cc1nc(CN2C(=O)C3(COc4cc5c(cc43)OCO5)c3ccccc32)c(C(F)(F)F)o1` (stereo not drawn) registered a melting point of 136 to 137 °C.

Molecule `c1ccc(CNc2nc3ccccc3s2)cc1` showed a melting point of 159 °C. `CN1C(=O)C(C)(C)C(=O)Nc2ccc(C#N)cc21` registered a melting point of 250 to 251 °C.

Molecule `COC(=O)c1cccc(-c2ccc3c(c2)NCC3)c1` gave a melting point of 104 to 105 °C. Molecule `CCCOc1cnc(CO)cc1O` returned a melting point of 159 to 160 °C. The molecule `CCCOc1ccccc1-c1nc(NCCCO)cc(=O)[nH]1` registered a melting point of 148 °C. For `N#Cc1cc(F)c(-n2nc(C(F)(F)F)[nH]c2=O)cc1F` the value was 51 °C. For `O=C1NCCN(C(=O)OCc2ccccc2)C1Cc1ccccc1` (stereo not drawn) the value was 125 to 128 °C. On to `CCOC(=O)CC[C@H](NC(=O)c1ccc(NS(=O)(=O)c2cc3c(cc2Br)CCc2nc(N)[nH]c(=O)c2-3)cc1)C(=O)OCC`, for which the melting point stood at 175 °C. For `CCNC1CCN(c2c(F)cc3c(=O)c(C(=O)O)cn(C4CC4)c3c2F)C1` (stereo not drawn) the value was 236 to 238 °C; for `COC(=O)c1ccc(Cn2c(C(F)(F)F)nc3cc(C)c(C)cc32)cc1`, 150 to 152 °C; for `CCN1c2ncc(CNc3cccc(N)c3)cc2C(=O)N(C)c2ccc(Cl)nc21`, 188 to 190 °C. Take `Oc1ccccc1[C@@H]1C[C@H]2C=C(c3c[nH]c(-c4ccc(F)cc4)c3-c3ccncc3)CCN2C1`: the melting point lay within 195 to 196 °C. Regarding `CC(CCCC(C)(C)O)C1CCC2C3CCC4(O)CC(=O)CCC4(C)C3CCC12C` (stereo not drawn), the melting point lay within 215 to 217 °C. In turn, `CCCc1cc(C=CC(=O)c2ccc(O)cc2)c(OC)cc1O` returned a melting point of 126 to 128 °C.

On to `CC1Oc2ccc(CN3CCN(c4ccc(C(=O)O)cn4)CC3)cc2NC1=O` (stereo not drawn), for which the melting point is 243 to 248 °C. `CC(Nc1ccccc1O)=C1C(=O)OC(=O)C(C(=O)C=Cc2ccc(O)cc2)=C1O`: the melting point lay in the range of 257 to 260 °C. As to `COc1cc(OC)cc(OC(=O)NC(=O)C(c2ccccc2)c2ccccc2)c1`, the melting point fell in the range of 150 to 152 °C. `COc1cc2c3c(n(C)c(=O)c2cc1OC)-c1cc(OCc2ccccc2)c(OCc2ccccc2)cc1C3=O` yielded a melting point of 238 to 240 °C.

In turn, `FC(F)(F)c1cccc(CNc2ncnc3ccccc23)c1` returned a melting point of 145 to 146 °C. For `Cn1cc(C(=O)C(Cl)Cl)c(=O)c(-c2cccc(F)c2)c1` the value was 183 to 184 °C. In the case of `OC1(c2ccc(Cl)cc2)c2ccc(Cl)cc2-c2ncncc21` (stereo not drawn) it was 194 to 196 °C; in that of `NCC1Cc2cc(C(F)(F)F)cc(-c3cccc(F)c3)c2O1` (stereo not drawn), greater than 250 °C. As for `O=C(C#Cc1ccc(C(F)(F)F)cc1Cl)Nc1ccc(OCCn2cccn2)cc1`, the melting point is 120 to 125 °C. For `CCCCC(C)C(O)C=Cc1ccc(OCc2ccccc2)c(OCc2ccccc2)c1` (stereo not drawn) the value was 77 to 78 °C. In the case of `COc1ccc(-c2nc(Sc3ccccc3OC)[nH]c2-c2ccc(OC)cc2)cc1` it was 161 °C. In the case of `O[C@@H]1c2ccccc2C=C[C@H]1NCc1ccccc1` (relative stereo) it was 125 to 126 °C; in that of `O=C1NC(=O)C2(CCCc3ncc(Cl)cc32)N1` (stereo not drawn), 230 to 233 °C.

For `CCc1cc(Cc2cc(C)c(N)c(CC)c2)cc(C)c1N`, the melting point lay in the range of 85 to 86 °C. For `Cc1c(C(=O)OC(C)(C)C)nn(-c2ccc(Cl)cc2Cl)c1-c1ccc(Cl)cc1`, the melting point amounted to 112 °C.

Regarding `Cn1nc(N)nc1NCCCOc1cccc(C2OCCO2)c1`, the melting point was 117 to 118 °C. The molecule `CC(=O)NCc1ccc(CN2CCN(c3ccc(F)cc3)CC2)cc1` gave a melting point of 164 to 166 °C. Turning to `COc1ccc(S(=O)(=O)n2ccc3ccnc(-c4ccc(F)cc4)c32)cc1`, the melting point is 136 to 137 °C. With `CC(=O)c1ccc(S(=O)(=O)NCC(F)(F)F)cc1`, the melting point was in the range of 180 to 181 °C. As to `CCCCCS(=O)(=O)NC(=O)/C=C/c1ccc(OCCOC)cc1NC(=O)c1ccc(F)cc1F`, the melting point was in the range of 140 to 141 °C. Molecule `O=c1cnc(-c2ccccc2)nn1CC(F)(F)F` had a melting point of 129 to 131 °C. `CCC(C)(C)c1cc(-c2cccc(CC3SC(N4CCOCC4)=NC3=O)c2)ccc1O` (stereo not drawn) gave a melting point of 74 to 77 °C. Molecule `Nc1cccc([C@H]2C[C@H]2NC(=O)Nc2ccc(Cl)cn2)c1` (racemic) came in with a melting point of 178 °C. For the molecule `[N-]=[N+]=NC[C@H]1CN(c2ccc(N3C[C@@H]4C[C@H]3CO4)c(F)c2)C(=O)O1`, the melting point is 101 to 102 °C. The molecule `CCOCc1nc2c(N)nc3cc(/C=C/C(=O)OC)ccc3c2n1CCCCN1CCCS1(=O)=O` returned a melting point of 162 to 163 °C. In the case of `COCCOc1ccc(C=O)c(O)c1`, the melting point is 64.5 to 65.5 °C.

For the molecule `O=[N+]([O-])c1cnc(N2CCc3ccccc3CC2)c([N+](=O)[O-])c1`, the melting point lay within 137 to 140 °C. `COC(=O)CCCCCCCCCCCCCCCCCOS(=O)(=O)c1ccc(C)cc1`: the melting point lay in the range of 67.5 to 68.5 °C.

The record behind these values is a melting point compilation (Tetko et al.; mined from patent text by program, amines drawn as free bases though some values may be those of a salt).
